Like-named read-outs stand apart in the source and are kept apart here.
Assays:
Assay type in all cases: cell-based
[1] = tested on: DMS114 small lung cancer cell line; assay: MTS cell viability assay, DMS114; conditions: read-out: IC50 values (μM) against small lung cancer DMS114
From the text: (§1) To determine if novel synthetic thioindirubins have antitumor activities, we performed an MTS cell viability assay. Initially, we screened them at […] final concentration with A2058 melanoma and DU145 prostate cancer cell lines. Then, compound 9b and compound 7e were selected to determine IC50 values against prostate cancer, melanoma and lung cancer cells, including DU145, A2058, A549, H513, H2461, H358, DMS114, H2596, DMS273, H69, H526 and DMS114 cell lines. For the viability assay, 5000 cells/well were seeded in 96-well plates, incubated overnight at 37° C. in 5% CO2 and then exposed to […] of compounds or in a dose-dependent manner for 48 h. After 48 h treatment with compounds, MTS dye (20 μL/well) was added to 96-well plates. Viable cell numbers were determined by tetrazolium conversion to its formazan dye. Absorbance was measured at 490 nm using the BMG LABTECH plate reader. Dimethyl sulfoxide (DMSO) was used as the vehicle control. Each experiment was conducted in triplicate. IC50 values were determined using CalcuSyn software (Biosoft).

A2058 melanoma cell line = assay: MTS cell viability assay, A2058; conditions: for IC50: A2058, 48 h, read-out: IC50 values (μM) against prostate cancer and melanoma A2058 (melanoma); for IC50 / Cell viability (% control) A2058 1 μM / Cell viability (% control) A2058 10 μM: MTS
From the text: as §1

[2] = tested on: H2461 non-small lung cancer cell line; assay: MTS cell viability assay, H2461; conditions: H2461, 48 h, read-out: IC50 values (μM) against non-small lung cancer H2461
From the text: as §1

[3] = tested on: lung cancer, prostate cancer and melanoma cell lines; assay: MTS cell viability assay, cancer cell line panel (summary statement); conditions: some cell lines, not specified; read-out: IC50 against some cell lines (antitumor activities)
Method: IC50 values (μM) of compound 9b were determined using lung cancer cell lines including non-small lung cancer cell lines (Table 3: A549, H513, H2461, H358, ad H2596) and small lung cancer cell lines (Table 4: DMS273, H69, H526, and DMS114), prostate cancer (Table 5: DU145), melanoma (Table 5: A2058).
as §1

[4] = tested on: H69 small lung cancer cell line; assay: MTS cell viability assay, H69; conditions: H69, 48 h, read-out: IC50 values (μM) against small lung cancer H69
From the text: as §1

[5] = tested on: DMS273 small lung cancer cell line; assay: MTS cell viability assay, DMS273; conditions: read-out: IC50 values (μM) against small lung cancer DMS273
From the text: as §1

[6] = tested on: H526 small lung cancer cell line; assay: MTS cell viability assay, H526; conditions: read-out: IC50 values (μM) against small lung cancer H526
From the text: as §1

[7] = tested on: H513 non-small lung cancer cell line; assay: MTS cell viability assay, H513; conditions: H513, 48 h, read-out: IC50 values (μM) against non-small lung cancer H513
From the text: as §1

[8] = tested on: H2596 non-small lung cancer cell line; assay: MTS cell viability assay, H2596; conditions: H2596, 48 h, read-out: IC50 values (μM) against non-small lung cancer H2596
From the text: as §1

[9] = tested on: DU145 prostate cancer cell line; assay: MTS cell viability assay, DU145; conditions: for IC50: DU145, 48 h, read-out: IC50 values (μM) against prostate cancer and melanoma DU145 (prostate cancer); for IC50 / Cell viability (% control) DU145 1 μM / Cell viability (% control) DU145 10 μM: MTS
From the text: as §1

[10] = tested on: H358 non-small lung cancer cell line; assay: MTS cell viability assay, H358; conditions: read-out: IC50 values (μM) against non-small lung cancer H358
From the text: as §1

[11] = tested on: A549 non-small lung cancer cell line; assay: MTS cell viability assay, A549; conditions: A549, 48 h, read-out: IC50 values (μM) against non-small lung cancer A549
From the text: as §1

COC(=O)c1ccc2c(c1)C(=N\OCCN1CCNCC1)/C(=C1/C(=O)Sc3ccccc31)N2 [Compound 9b, (2′Z,3′E)-5′-(Methoxycarbonyl)thioindirubin-3′-[O-(2-(piperazin-1-yl)ethyl)]oxime]
IC50 ([1]; Homo sapiens, DMS-114, DMS114, 48 h): 1.13 µM | viabilities of these cells at 10 μM concentration (A2058), in words (A2058 melanoma cell line; A2058, 10 μM): extremely reduced viabilities | Cell viability at 10 μM (% control) A2058 (A2058 melanoma cell line; A2058, 10 μM, 48 h, MTS (Table 2)): 8 % control | IC50 (A2058 melanoma cell line; Homo sapiens): 1.07 µM | IC50 [2]: 1 µM | IC50 [3]: ~1000 nM | IC50 [4]: 0.78 µM | IC50 ([5]; Homo sapiens, DMS-273, DMS273, 48 h): 6.1 µM | IC50 ([6]; Homo sapiens, NCI-H526, H526, 48 h): 1.7 µM | IC50 [7]: 1.6 µM | IC50 [8]: 1.02 µM | viabilities of these cells at 10 μM concentration (DU145), in words ([9]; DU145, 10 μM): extremely reduced viabilities | Cell viability at 10 μM (% control) DU145 ([9]; DU145, 10 μM, 48 h, MTS (Table 2)): 17 % control | IC50 ([9]; Homo sapiens, DU-145): 2.53 µM | IC50 ([10]; Homo sapiens, NCI-H358, H358, 48 h): 2.4 µM | IC50 ([11]; Homo sapiens): 4.6 µM

COC(=O)c1ccc2c(c1)C(=O)/C(=C1/C(=O)Sc3ccccc31)N2 [Compound 6e, (2′Z)-5′-(Methoxycarbonyl)thioindirubin]
Cell viability (% control) A2058 1 μM (A2058 melanoma cell line; 48 h): 92 % control | Cell viability (% control) A2058 10 μM (A2058 melanoma cell line; A2058, 10 μM, 48 h): 94 % control | Cell viability (% control) DU145 1 μM ([9]; 48 h): >100 % control | Cell viability (% control) DU145 10 μM ([9]; DU145, 10 μM, 48 h): >100 % control

O=C1Sc2ccccc2/C1=C1/Nc2ccc(Br)cc2C1=O [Compound 6b, (2′Z)-5′-Bromothioindirubin]
Cell viability (% control) A2058 1 μM (A2058 melanoma cell line; 48 h): 97 % control | Cell viability (% control) A2058 10 μM (A2058 melanoma cell line; A2058, 10 μM, 48 h): 100 % control | Cell viability (% control) DU145 1 μM ([9]; 48 h): >100 % control | Cell viability (% control) DU145 10 μM ([9]; DU145, 10 μM, 48 h): >100 % control

Cc1ccc2c(c1)C(=O)/C(=C1/C(=O)Nc3ccccc31)S2 [Compound 6g, (2′Z)-5′-Methylthioindirubin]
Cell viability (% control) A2058 1 μM (A2058 melanoma cell line; 48 h): >100 % control | Cell viability (% control) A2058 10 μM (A2058 melanoma cell line; A2058, 10 μM, 48 h): 97 % control | Cell viability (% control) DU145 1 μM ([9]; 48 h): 94 % control | Cell viability (% control) DU145 10 μM ([9]; DU145, 10 μM, 48 h): >100 % control

N#Cc1ccc2c(c1)C(=N\O)/C(=C1/C(=O)Nc3ccccc31)S2 [Compound 7d, (2′Z,3′E)-5′-Cyanothioindirubin-3′-oxime]
Cell viability (% control) A2058 1 μM (A2058 melanoma cell line; 48 h): 89 % control | Cell viability (% control) A2058 10 μM (A2058 melanoma cell line; A2058, 10 μM, 48 h): 99 % control | Cell viability (% control) DU145 1 μM ([9]; 48 h): >100 % control | Cell viability (% control) DU145 10 μM ([9]; DU145, 10 μM, 48 h): 93 % control

O=C1Sc2ccccc2/C1=C1/Nc2cc(Cl)ccc2/C1=N\O [Compound 7c, (2′Z,3′E)-6′-Chlorothioindirubin-3′-oxime]
Cell viability (% control) A2058 1 μM (A2058 melanoma cell line; 48 h): 86 % control | Cell viability (% control) A2058 10 μM (A2058 melanoma cell line; A2058, 10 μM, 48 h): 27 % control | Cell viability (% control) DU145 1 μM ([9]; 48 h): >100 % control | Cell viability (% control) DU145 10 μM ([9]; DU145, 10 μM, 48 h): 33 % control

COC(=O)c1ccc2c(c1)C(=N\O)/C(=C1/C(=O)Nc3ccccc31)S2 [Compound 7e, (2′Z,3′E)-5′-(Methoxycarbonyl)thioindirubin-3′-oxime]
IC50 ([1]; DMS114, 48 h): > 10 µM | Cell viability (% control) A2058 1 μM (A2058 melanoma cell line; 48 h): 90 % control | Cell viability (% control) A2058 10 μM (A2058 melanoma cell line; A2058, 10 μM, 48 h): 68 % control | IC50 (A2058 melanoma cell line): > 10 µM | IC50 [2]: > 10 µM | IC50 [4]: > 10 µM | IC50 ([5]; DMS273, 48 h): > 10 µM | IC50 ([6]; H526, 48 h): > 10 µM | IC50 [7]: > 10 µM | IC50 [8]: > 10 µM | Cell viability (% control) DU145 1 μM ([9]; 48 h): >100 % control | Cell viability (% control) DU145 10 μM ([9]; DU145, 10 μM, 48 h): 88 % control | IC50 [9]: > 10 µM | IC50 ([10]; H358, 48 h): 7.7 µM | IC50 [11]: > 10 µM
